Columns and labels:
[1] = LNP particle size and polydispersity index (PDI); format: physicochemical; conditions: LNP lipid:PEG-1:DSPC:Cholesterol 48:2:11:39, hEPO mRNA, 20 mM Tris 8% Sucrose pH 7.4
Method: A Zetasizer Nano ZS (Malvern Instruments Ltd, Malvern, Worcestershire, UK) can be used to determine the particle size, the polydispersity index (PDI) and the zeta potential of the nanoparticle compositions in 1×PBS in determining particle size and 15 mM PBS in determining zeta potential.
LNPs may be characterized by a variety of methods. For example, microscopy (e.g., transmission electron microscopy or scanning electron microscopy) may be used to examine the morphology and size distribution of a nanoparticle composition. Dynamic light scattering or potentiometry (e.g., potentiometric titrations) may be used to measure zeta potentials. Dynamic light scattering may also be utilized to determine particle sizes. Instruments such as the Zetasizer Nano ZS (Malvern Instruments Ltd, Malvern, Worcestershire, UK) may also be used to measure multiple characteristics of a nanoparticle composition, such as particle size, polydispersity index, and zeta potential.
(§1) LNPs comprising ionizable lipids described herein were formulated according to Table 2 and the following general procedure.
(§2) General procedure for one-pot LNP formation: Lipid stock solutions in ethanol are mixed with mRNA in 25 mM acetate solution at a 3:1 ratio in a microfluidic mixer. The resulting LNPs, which are at approximately pH 5 and 25% EtOH, are buffer exchanged by dialysis into the storage buffer. The LNP solutions are then concentrated by Amicon® and purified by a 0.2 uM sterile filter.

[2] = mRNA encapsulation by the LNP (% EE, total mRNA in TX); format: physicochemical; conditions: LNP lipid:PEG-1:DSPC:Cholesterol 48:2:11:39, hEPO mRNA
Method: For nanoparticle compositions including an RNA, a QUANT-IT™ RIBOGREEN® RNA assay (Invitrogen Corporation Carlsbad, CA) can be used to evaluate the encapsulation of an RNA by the nanoparticle composition. The samples are diluted to a concentration of approximately 5 μg/mL in a TE buffer solution (10 mM Tris-HCl, 1 mM EDTA, pH 7.5). 50 μL of the diluted samples are transferred to a polystyrene 96 well plate and either 50 μL of TE buffer or 50 μL of a 2% Triton X-100 solution is added to the wells. The plate is incubated at a temperature of 37° C. for 15 minutes. The RIBOGREEN® reagent is diluted 1:100 in TE buffer, and 100 μL of this solution is added to each well. The fluorescence intensity can be measured using a fluorescence plate reader (Wallac Victor 1420 Multilablel Counter; Perkin Elmer, Waltham, MA) at an excitation wavelength of, for example, about 480 nm and an emission wavelength of, for example, about 520 nm. The fluorescence values of the reagent blank are subtracted from that of each of the samples and the percentage of free RNA is determined by dividing the fluorescence intensity of the intact sample (without addition of Triton X-100) by the fluorescence value of the disrupted sample (caused by the addition of Triton X-100).
The efficiency of encapsulation of a therapeutic and/or prophylactic agent describes the amount of therapeutic and/or prophylactic agent that is encapsulated or otherwise associated with an LNP after preparation, relative to the initial amount provided. The encapsulation efficiency is desired to be high (e.g., close to 100%). The encapsulation efficiency may be measured, for example, by comparing the amount of therapeutic and/or prophylactic agent in a solution containing a loaded LNP before and after breaking up the loaded LNP with one or more organic solvents or detergents. Fluorescence may be used to measure the amount of free therapeutic and/or prophylactic agent (e.g., RNA) in a solution. For the loaded LNPs formulated with lipids of the disclosure, the encapsulation efficiency of a therapeutic and/or prophylactic agent is at least 50%, for example 50%, 55%, 60%, 65%, 70%, 75%, 80%, 85%, 90%, 91%, 92%, 93%, 94%, 95%, 96%, 97%, 98%, 99%, or 100%. In some embodiments, the encapsulation efficiency is at least 80%. In some embodiments, the encapsulation efficiency is at least 90%. In some embodiments, the encapsulation efficiency of the therapeutic and/or prophylactic agent is between 80% and 100%.
as §1, §2

[3] = Endotoxin content of LNP formulation; conditions: LNP lipid:PEG-1:DSPC:Cholesterol 48:2:11:39, hEPO mRNA
From the text: as §1

pH of LNP formulation = format: physicochemical; conditions: LNP formulation in 20 mM Tris 8% Sucrose storage buffer
From the text: as §1

[4] = Osmolality of LNP formulation; format: physicochemical; conditions: LNP formulation in 20 mM Tris 8% Sucrose storage buffer
From the text: as §1

hEPO protein expression = hEPO protein expression in vivo after systemic administration of LNPs; conditions: Table 3B groups 1A-8A, ratio to L5 LNP
Method: In order to monitor how effectively various nanoparticle compositions deliver therapeutic and/or prophylactic agents to targeted cells, different nanoparticle compositions including a particular therapeutic and/or prophylactic agent (for example, a modified or naturally occurring RNA such as an mRNA) are prepared and administered to animal populations. Animals (e.g., mice, rats, or non-human primates) are intravenously, intramuscularly, intraarterially, or intratumorally administered a single dose including a nanoparticle composition comprising a lipid of the disclosure and an mRNA expressing a protein, e.g., human erythropoietin (hEPO) or luciferase. A control composition including PBS may also be employed.
Upon administration of nanoparticle compositions to an animal, dose delivery profiles, dose responses, and toxicity of particular formulations and doses thereof can be measured by enzyme-linked immunosorbent assays (ELISA), bioluminescent imaging, or other methods. For nanoparticle compositions including mRNA, time courses of protein expression can also be evaluated. Samples collected from the animals for evaluation may include blood, sera, and tissue (for example, muscle tissue from the site of an intramuscular injection and internal tissue); sample collection may involve sacrifice of the animals.
ELISA test kits may provide hEPO concentrations in milli International Units per mL (mIU/mL), e.g., per mL of tested serum. Typically, the EPO concentration of unknown sample is calculated from a calibration curve. Standards (used for the calibration curve) are calibrated according to the 2. IRP WHO preparation. In some embodiments, mIU/mL corresponds to […]. Nanoparticle compositions including mRNA are useful in the evaluation of the efficacy and usefulness of various formulations for the delivery of therapeutic and/or prophylactic agents. Higher levels of protein expression induced by administration of a composition including an mRNA will be indicative of higher mRNA translation and/or nanoparticle composition mRNA delivery efficiencies. As the non-RNA components are not thought to affect translational machineries themselves, a higher level of protein expression is likely indicative of a higher efficiency of delivery of the therapeutic and/or prophylactic agent by a given nanoparticle composition relative to other nanoparticle compositions or the absence thereof.
In some embodiments, an in vivo expression assay may be used to assess potency of expression of lipids of the disclosure. In some embodiments, the protein expression (hEPO) may be measured in mice following administration of a nanoparticle comprising a lipid of the disclosure (e.g., a loaded LNP). In some embodiments, lipid nanoparticles of the instant disclosure may be intravenously administered to mice (e.g., CD-1 mice).
In some embodiments, the concentration of hEPO in serum may be tested after administration (e.g., about six hours after injection). In some embodiments, residual levels of the lipids of the disclosure in organs or tissue of the subject after administration (e.g., 6 h, 12 h, 18 h, 24 h, 36h, or 48 h after administration) are measured. In some embodiments, the residual levels of the lipids of the disclosure in the liver are measured. In some embodiments, an in vitro expression assay may be used to assess nanoparticles of the disclosure. In some embodiments, cells (e.g., HeLa) may be plated in an imaging plate (e.g., poly-D-lysine coated) and cultured in serum (e.g., human serum, mouse serum, cynomolgus monkey serum or fetal bovine serum). In some embodiments, lipid nanoparticles of the disclosure comprising an mRNA expressing fluorescent protein (e.g., green fluorescent protein (GFP)) and a fluorescent lipid (e.g., rhodamine-DOPE) may be added to the plate and the plate imaged for uptake and expression. In some embodiments, expression may be evaluated by measuring fluorescence (e.g., from GFP). […]

| SMILES | PDI [1] | Size (nm) [1] [nm] | % EE [2] [%] | Endotoxin (EU/mL) [3] [EU/mL] | pH (pH of LNP formulation) | Osmolality (mOsm/kg) [4] [mOsm/kg] | 6 hr protein expression ratio cf. L5 (hEPO protein expression) | 24 hr protein expression ratio cf. L5 (hEPO protein expression) |
| --- | --- | --- | --- | --- | --- | --- | --- | --- |
| CCCCCCCCC(CCCCCCCC)OC(=O)CCCCCCCN(CCCCCCC(C(=O)OCCCCCC)C(=O)OCCCCCC)CCCNC(=O)CC [Compound M5, Dihexyl 2-(6-((8-(heptadecan-9-yloxy)-8-oxooctyl)(3-propionamidopropyl)amino)hexyl)malonate] | 0.496 | 126.7 | 69.8 | 2.7 | 6.962 | 320 | 1.37 | 1.15 |
| CCCCCCCCC(CCCCCCCC)OC(=O)CCCCCCCN(CCCCCCC(C(=O)OCCCCCC)C(=O)OCCCCCC)CCCNC(=O)C1CC1 [Compound M6, Dihexyl 2-(6-((3-(cyclopropanecarboxamido)propyl)(8-(heptadecan-9-yloxy)-8-oxooctyl)amino)hexyl)malonate] | 0.418 | 104.9 | 67.8 | <2 | 7.450 | 317 | 0.82 | 0.81 |

From US20260199239A1, “IONIZABLE LIPIDS WITH MALONATE TAILS” (ModernaTX, Inc., priority 2022, published 2026)
